Test results published in patent US20160375006A1, “USES OF PARALOG-SELECTIVE INHIBITORS OF GSK3 KINASES” (priority 2012, published 2016).

Experiments:
CaMK2γ = CaMK2γ (Homo sapiens, UniProt Q13555)
Procedure: (§1) This was completed utilizing one of two assays depending on the kinase being examined.
(§2) A solution of IMAP binding reagent (IMAP Screening Express kit; Molecular Devices) (60 μL) was added to each well and incubated for 30 minutes.
(§3) A solution of termination buffer (QuickScout Screening assist MSA; Carna Biosciences) (60 μL) was added to each well. The entire reaction mixture was then applied to a LabChip3000 system (Caliper Life Science) and the product and substrate peptide peaks were separated and quantified.
(§4) The assay utilized was identical to that of the single point inhibitory activity determination (MSA) but run in dose response. […] A solution of termination buffer (QuickScout Screening assist MSA; Carna Biosciences) (60 μL) was added to each well. The entire reaction mixture was then applied to a LabChip3000 system (Caliper Life Science) and the product and substrate peptide peaks were separated and quantified.

SPHK2 = SPHK2 (Homo sapiens, UniProt Q9NRA0)
Procedure: as §1, §2, §3, §4

PIK3CA/PIK3R1 = PIK3CA/PIK3R1 (Homo sapiens, UniProt P42336)
Procedure: as §1, §2, §3, §4

MET = MET (Homo sapiens, UniProt P08581)
Procedure: as §2, §3, §4

CaMK2α = CaMK2α (Homo sapiens, UniProt Q9UQM7)
Procedure: as §1, §2, §3, §4

FLT1 = FLT1 (Homo sapiens, UniProt P17948)
Procedure: as §1, §2, §3, §4

MAP3K5_Cascade = MAP3K5_Cascade (Homo sapiens, UniProt Q99683)
Procedure: as §1, §2, §3, §4

BRAF(V600E)_Cascade = BRAF(V600E)_Cascade (Homo sapiens, UniProt P15056, V600E)
Procedure: as §1, §2, §3

DCAMKL2 = DCAMKL2 (Homo sapiens, UniProt Q8N568)
Procedure: as §1, §2, §3, §4

MELK = target: T1, MELK (Homo sapiens, UniProt Q14680); experiment: Carna kinase panel; assay type: biochemical
T1 construct: purchased Carna Biosciences
Procedure: as §1, §2, §3

SIK = SIK (Homo sapiens, UniProt P57059)
Procedure: as §1, §2, §3, §4

MARK4 = MARK4 (Homo sapiens, UniProt Q96L34)
Procedure: as §1, §2, §3, §4

IKKα = IKKα (Homo sapiens, UniProt O15111)
Procedure: as §1, §2, §3, §4

EPHA4 = EPHA4 (Homo sapiens, UniProt P54764)
Chain of EPHA4 (P54764 20-986): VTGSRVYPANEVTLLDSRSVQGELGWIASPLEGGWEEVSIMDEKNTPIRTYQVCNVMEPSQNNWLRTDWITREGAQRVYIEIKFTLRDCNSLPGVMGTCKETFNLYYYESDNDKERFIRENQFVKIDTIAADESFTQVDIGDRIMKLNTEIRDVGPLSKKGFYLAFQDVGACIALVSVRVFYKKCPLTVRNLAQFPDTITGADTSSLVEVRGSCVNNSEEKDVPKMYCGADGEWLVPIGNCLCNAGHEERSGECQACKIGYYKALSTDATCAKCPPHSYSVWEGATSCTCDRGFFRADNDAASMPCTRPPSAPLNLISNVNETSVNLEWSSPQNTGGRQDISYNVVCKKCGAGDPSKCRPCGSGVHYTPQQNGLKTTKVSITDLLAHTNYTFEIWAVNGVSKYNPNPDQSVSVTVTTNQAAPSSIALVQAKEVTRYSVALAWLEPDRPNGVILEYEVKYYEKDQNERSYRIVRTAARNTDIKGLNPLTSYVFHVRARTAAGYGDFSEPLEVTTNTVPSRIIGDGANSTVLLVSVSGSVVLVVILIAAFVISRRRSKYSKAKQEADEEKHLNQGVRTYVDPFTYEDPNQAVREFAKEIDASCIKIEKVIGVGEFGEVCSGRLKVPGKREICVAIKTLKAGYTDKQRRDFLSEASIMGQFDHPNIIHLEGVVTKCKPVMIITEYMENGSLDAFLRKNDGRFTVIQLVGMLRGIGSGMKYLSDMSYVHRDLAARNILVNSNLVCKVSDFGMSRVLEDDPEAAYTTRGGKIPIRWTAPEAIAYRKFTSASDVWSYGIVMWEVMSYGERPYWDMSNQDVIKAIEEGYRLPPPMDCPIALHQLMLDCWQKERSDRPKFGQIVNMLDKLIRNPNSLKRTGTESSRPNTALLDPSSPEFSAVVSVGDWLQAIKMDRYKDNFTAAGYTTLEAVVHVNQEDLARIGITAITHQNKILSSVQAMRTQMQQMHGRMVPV
Procedure: as §1, §2, §3, §4

TYK2 = TYK2 (Homo sapiens, UniProt P29597)
Procedure: as §2, §3, §4

LYNa = LYNa (Homo sapiens, UniProt P07948)
Procedure: as §1, §2, §3

NDR2 = NDR2 (Homo sapiens, UniProt Q9Y2H1)
Procedure: as §1, §2, §3, §4

RET = RET (Homo sapiens, UniProt P07949)
Procedure: as §1, §2, §3

LCK = LCK (Homo sapiens, UniProt P06239)
Procedure: as §1, §2, §3, §4

FGR = FGR (Homo sapiens, UniProt P09769)
Procedure: as §1, §2, §3, §4

MSSK1 = MSSK1 (Homo sapiens, UniProt Q9UPE1)
Procedure: as §1, §2, §3, §4

HER2 = HER2 (Homo sapiens, UniProt P04626)
Procedure: as §1, §2, §3, §4

PDGFRα(T674I) = PDGFRα(T674I) (Homo sapiens, UniProt P16234, T674I)
Procedure: as §1, §2, §3, §4

NuaK2 = NuaK2 (Homo sapiens, UniProt Q9H093)
Procedure: as §1, §2, §3, §4

JAK1 = JAK1 (Homo sapiens, UniProt P23458)
Procedure: as §1, §2, §3, §4

PDHK4 = PDHK4 (Homo sapiens, UniProt Q16654)
Procedure: as §1, §2, §3, §4

IKKβ = IKKβ (Homo sapiens, UniProt O14920)
Chain of IKKβ (O14920 whole entry): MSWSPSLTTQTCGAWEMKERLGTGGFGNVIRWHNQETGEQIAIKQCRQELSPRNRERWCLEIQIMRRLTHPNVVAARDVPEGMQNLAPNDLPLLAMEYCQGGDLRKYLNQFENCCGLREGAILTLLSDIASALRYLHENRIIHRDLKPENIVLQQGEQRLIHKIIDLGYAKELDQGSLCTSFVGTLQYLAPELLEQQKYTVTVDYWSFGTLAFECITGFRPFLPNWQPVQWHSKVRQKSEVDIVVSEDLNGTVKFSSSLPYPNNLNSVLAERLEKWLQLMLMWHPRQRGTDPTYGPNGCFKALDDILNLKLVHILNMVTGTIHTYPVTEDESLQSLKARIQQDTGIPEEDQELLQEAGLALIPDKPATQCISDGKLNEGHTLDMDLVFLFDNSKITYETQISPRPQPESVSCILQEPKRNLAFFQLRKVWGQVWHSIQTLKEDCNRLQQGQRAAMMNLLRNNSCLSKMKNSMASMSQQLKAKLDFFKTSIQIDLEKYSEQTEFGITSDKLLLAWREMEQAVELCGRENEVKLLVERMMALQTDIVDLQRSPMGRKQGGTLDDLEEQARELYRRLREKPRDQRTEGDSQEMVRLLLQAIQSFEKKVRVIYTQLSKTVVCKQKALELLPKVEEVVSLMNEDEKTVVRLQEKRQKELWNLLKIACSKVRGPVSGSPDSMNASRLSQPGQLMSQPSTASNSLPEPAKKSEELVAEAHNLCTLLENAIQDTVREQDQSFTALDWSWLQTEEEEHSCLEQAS
Procedure: as §1, §2, §3, §4

JAK2 = JAK2 (Homo sapiens, UniProt O60674)
Chain of JAK2 (O60674 whole entry): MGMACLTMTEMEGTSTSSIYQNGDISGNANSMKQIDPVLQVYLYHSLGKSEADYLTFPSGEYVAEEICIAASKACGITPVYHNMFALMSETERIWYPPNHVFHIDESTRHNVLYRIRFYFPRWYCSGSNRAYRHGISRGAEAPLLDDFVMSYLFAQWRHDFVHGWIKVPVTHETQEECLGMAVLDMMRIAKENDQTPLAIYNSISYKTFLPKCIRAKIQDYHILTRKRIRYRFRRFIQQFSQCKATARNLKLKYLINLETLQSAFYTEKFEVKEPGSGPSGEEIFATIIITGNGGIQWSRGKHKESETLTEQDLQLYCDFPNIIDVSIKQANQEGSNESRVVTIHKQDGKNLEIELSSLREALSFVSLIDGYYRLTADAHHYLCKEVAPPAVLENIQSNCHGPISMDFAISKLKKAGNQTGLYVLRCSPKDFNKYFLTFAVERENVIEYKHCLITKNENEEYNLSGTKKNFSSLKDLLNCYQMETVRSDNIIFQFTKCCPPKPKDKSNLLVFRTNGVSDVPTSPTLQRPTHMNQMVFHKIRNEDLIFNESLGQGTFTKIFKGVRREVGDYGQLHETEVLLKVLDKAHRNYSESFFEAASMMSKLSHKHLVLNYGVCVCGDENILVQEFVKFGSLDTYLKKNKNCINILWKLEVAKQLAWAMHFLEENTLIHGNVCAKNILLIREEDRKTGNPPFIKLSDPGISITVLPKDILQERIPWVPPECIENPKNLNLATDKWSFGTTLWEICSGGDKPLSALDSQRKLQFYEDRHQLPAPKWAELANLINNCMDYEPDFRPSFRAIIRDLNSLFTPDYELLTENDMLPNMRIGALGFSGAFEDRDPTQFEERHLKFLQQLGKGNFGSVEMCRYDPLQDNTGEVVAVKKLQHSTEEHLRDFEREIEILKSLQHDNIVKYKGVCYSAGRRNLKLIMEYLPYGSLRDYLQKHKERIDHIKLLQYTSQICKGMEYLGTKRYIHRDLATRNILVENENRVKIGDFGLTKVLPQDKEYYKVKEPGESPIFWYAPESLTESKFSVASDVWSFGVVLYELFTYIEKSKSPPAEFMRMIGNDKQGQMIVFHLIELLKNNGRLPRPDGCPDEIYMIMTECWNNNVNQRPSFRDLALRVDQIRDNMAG
Procedure: as §1, §2, §3, §4

PRKX = PRKX (Homo sapiens, UniProt P51817)
Procedure: as §1, §2, §3, §4

TBK1 = TBK1 (Homo sapiens, UniProt Q9UHD2)
Procedure: as §1, §2, §3

EPHA7 = EPHA7 (Homo sapiens, UniProt Q15375)
Procedure: as §1, §2, §3, §4

HCK = HCK (Homo sapiens, UniProt P08631)
Procedure: as §1, §2, §3

MRCKα = MRCKα (Homo sapiens, UniProt Q5VT25)
Procedure: as §1, §2, §3, §4

KIT(D816V) = KIT(D816V) (Homo sapiens, UniProt P10721, D816V)
Procedure: as §1, §2, §3, §4

skMLCK = skMLCK (Homo sapiens, UniProt Q9H1R3)
Procedure: as §1, §2, §3, §4

WNK2 = WNK2 (Homo sapiens, UniProt Q9Y3S1)
Chain of WNK2 (Q9Y3S1 whole entry): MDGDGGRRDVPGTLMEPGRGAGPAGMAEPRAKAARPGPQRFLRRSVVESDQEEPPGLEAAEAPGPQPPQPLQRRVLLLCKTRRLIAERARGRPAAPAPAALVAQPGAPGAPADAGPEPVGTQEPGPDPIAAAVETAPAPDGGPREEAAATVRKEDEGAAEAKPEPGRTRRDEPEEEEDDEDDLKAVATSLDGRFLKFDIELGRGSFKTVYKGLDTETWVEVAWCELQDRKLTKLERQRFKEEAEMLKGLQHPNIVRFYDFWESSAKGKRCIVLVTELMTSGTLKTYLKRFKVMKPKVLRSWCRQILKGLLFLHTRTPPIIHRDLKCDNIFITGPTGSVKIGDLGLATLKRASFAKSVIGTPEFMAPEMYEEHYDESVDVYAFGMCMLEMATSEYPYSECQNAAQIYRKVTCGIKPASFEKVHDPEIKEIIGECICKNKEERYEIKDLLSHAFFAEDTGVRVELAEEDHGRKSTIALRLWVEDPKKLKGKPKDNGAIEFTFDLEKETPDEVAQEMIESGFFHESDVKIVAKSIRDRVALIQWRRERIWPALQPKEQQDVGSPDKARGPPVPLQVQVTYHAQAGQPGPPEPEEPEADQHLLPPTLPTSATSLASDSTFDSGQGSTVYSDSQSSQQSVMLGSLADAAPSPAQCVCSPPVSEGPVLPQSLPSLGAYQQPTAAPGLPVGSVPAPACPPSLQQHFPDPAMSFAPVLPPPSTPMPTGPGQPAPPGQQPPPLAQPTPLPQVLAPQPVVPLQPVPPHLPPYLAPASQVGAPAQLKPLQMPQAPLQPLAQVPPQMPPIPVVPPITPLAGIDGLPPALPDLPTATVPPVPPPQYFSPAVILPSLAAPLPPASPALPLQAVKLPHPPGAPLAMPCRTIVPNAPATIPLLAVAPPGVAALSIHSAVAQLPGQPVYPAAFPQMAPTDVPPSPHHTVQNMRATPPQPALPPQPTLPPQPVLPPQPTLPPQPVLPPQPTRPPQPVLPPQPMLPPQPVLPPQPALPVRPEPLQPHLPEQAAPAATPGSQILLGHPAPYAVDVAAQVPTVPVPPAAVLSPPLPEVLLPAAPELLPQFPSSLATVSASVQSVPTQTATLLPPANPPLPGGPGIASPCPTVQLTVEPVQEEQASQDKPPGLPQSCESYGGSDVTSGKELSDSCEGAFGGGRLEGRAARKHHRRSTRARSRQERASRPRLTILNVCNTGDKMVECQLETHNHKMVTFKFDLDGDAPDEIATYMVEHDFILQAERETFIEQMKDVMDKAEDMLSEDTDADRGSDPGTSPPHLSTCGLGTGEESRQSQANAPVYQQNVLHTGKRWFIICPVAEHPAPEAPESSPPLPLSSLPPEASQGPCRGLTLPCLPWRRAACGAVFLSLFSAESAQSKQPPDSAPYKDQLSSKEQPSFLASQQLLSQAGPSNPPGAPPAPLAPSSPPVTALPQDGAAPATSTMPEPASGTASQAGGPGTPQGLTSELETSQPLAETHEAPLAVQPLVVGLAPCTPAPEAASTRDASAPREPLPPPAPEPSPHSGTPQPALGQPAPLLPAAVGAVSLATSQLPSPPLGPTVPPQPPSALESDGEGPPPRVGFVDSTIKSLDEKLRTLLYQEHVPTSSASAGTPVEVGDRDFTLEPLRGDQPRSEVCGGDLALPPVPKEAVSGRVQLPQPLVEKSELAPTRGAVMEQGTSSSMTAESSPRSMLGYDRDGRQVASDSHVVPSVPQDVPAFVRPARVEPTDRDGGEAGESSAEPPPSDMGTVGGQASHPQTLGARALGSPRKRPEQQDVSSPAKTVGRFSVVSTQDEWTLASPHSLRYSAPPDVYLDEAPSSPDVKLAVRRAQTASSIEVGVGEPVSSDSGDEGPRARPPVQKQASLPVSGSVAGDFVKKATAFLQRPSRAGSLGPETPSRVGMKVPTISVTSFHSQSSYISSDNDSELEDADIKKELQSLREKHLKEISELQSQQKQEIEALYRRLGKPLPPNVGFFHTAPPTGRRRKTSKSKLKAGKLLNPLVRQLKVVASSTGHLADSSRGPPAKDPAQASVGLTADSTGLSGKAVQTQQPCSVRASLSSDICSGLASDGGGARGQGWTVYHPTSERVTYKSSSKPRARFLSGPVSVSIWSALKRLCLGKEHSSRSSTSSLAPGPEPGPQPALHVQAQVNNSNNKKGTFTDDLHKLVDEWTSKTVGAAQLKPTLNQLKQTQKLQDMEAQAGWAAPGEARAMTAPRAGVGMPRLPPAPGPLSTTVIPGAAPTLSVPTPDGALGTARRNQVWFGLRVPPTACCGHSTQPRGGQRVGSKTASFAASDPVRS
Procedure: as §1, §2, §3, §4

PAK5 = PAK5 (Homo sapiens, UniProt Q9P286)
Procedure: as §1, §2, §3

PIM1 = PIM1 (Homo sapiens, UniProt P11309)
Procedure: as §1, §2, §3

CLK2 = CLK2 (Homo sapiens, UniProt P49760)
Procedure: as §1, §2, §3, §4

PDGFRα = PDGFRα (Homo sapiens, UniProt P16234)
Procedure: as §1, §2, §3, §4

CK2α2/β = CK2α2/β (Homo sapiens, UniProt P19784)
Procedure: as §1, §2, §3, §4

CC[C@@]1(c2ccccc2)C2=C(CC(C)(C)CC2=O)Nc2n[nH]cc21 [BRD0705]
% Inhibition at 10 μM (CaMK2γ): −4.7% | % Inhibition at 10 μM (SPHK2): −3.8% | % Inhibition at 10 μM (PIK3CA/PIK3R1): −10.7% | % Inhibition at 10 μM (MET): −2.4% | % Inhibition at 10 μM (CaMK2α): −8.6% | % Inhibition at 10 μM (FLT1): −2.6% | % Inhibition at 10 μM (MAP3K5_Cascade): 1.9% | % Inhibition at 10 μM (BRAF(V600E)_Cascade): 7.0% | % Inhibition at 10 μM (DCAMKL2): −0.5% | % Inhibition at 10 μM (MELK): −5.6% | % Inhibition at 10 μM (SIK): −4.8% | % Inhibition at 10 μM (MARK4): 2.0% | % Inhibition at 10 μM (IKKα): −0.2% | % Inhibition at 10 μM (EPHA4): 4.0% | % Inhibition at 10 μM (TYK2): −2.2% | % Inhibition at 10 μM (LYNa): −0.4% | % Inhibition at 10 μM (NDR2): −9.9% | % Inhibition at 10 μM (RET): −5.6% | % Inhibition at 10 μM (LCK): 5.0% | % Inhibition at 10 μM (FGR): −3.4% | % Inhibition at 10 μM (MSSK1): −1.6% | % Inhibition at 10 μM (HER2): −11.1% | % Inhibition at 10 μM (PDGFRα(T674I)): 0.5% | % Inhibition at 10 μM (NuaK2): −1.7% | % Inhibition at 10 μM (JAK1): −1.3% | % Inhibition at 10 μM (PDHK4): 11.0% | % Inhibition at 10 μM (IKKβ): −4.0% | % Inhibition at 10 μM (JAK2): −0.5% | % Inhibition at 10 μM (PRKX): −4.7% | % Inhibition at 10 μM (TBK1): 1.7% | % Inhibition at 10 μM (EPHA7): −5.3% | % Inhibition at 10 μM (HCK): 1.1% | % Inhibition at 10 μM (MRCKα): −3.8% | % Inhibition at 10 μM (KIT(D816V)): 3.5% | % Inhibition at 10 μM (skMLCK): −2.5% | % Inhibition at 10 μM (WNK2): −5.0% | % Inhibition at 10 μM (PAK5): 9.3% | % Inhibition at 10 μM (PIM1): −3.4% | % Inhibition at 10 μM (CLK2): −3.0% | % Inhibition at 10 μM (PDGFRα): −0.8% | % Inhibition at 10 μM (CK2α2/β): −7.0%

CC(C)(C)Cc1[nH]nc2c1[C@](C)(c1ccccc1)C1=C(CC(C)(C)CC1=O)N2 [BRD3731]
% Inhibition 10 μM (CaMK2γ; 10 μM): −1.2% | % Inhibition 10 μM (SPHK2; 10 μM): 15.2% | % Inhibition 10 μM (PIK3CA/PIK3R1; 10 μM): 42.5% | % Inhibition 10 μM (MET; 10 μM): −0.8% | % Inhibition 10 μM (CaMK2α; 10 μM): −4.3% | % Inhibition 10 μM (FLT1; 10 μM): 3.2% | % Inhibition 10 μM (MAP3K5_Cascade; 10 μM): 0.4% | % Inhibition 10 μM (BRAF(V600E)_Cascade; 10 μM): −5.2% | % Inhibition 10 μM (DCAMKL2; 10 μM): −1.3% | % Inhibition 10 μM (MELK; 10 μM): 39.2% | % Inhibition 10 μM (SIK; 10 μM): 8.2% | % Inhibition 10 μM (MARK4; 10 μM): 22.7% | % Inhibition 10 μM (IKKα; 10 μM): 1.8% | % Inhibition 10 μM (EPHA4; 10 μM): −2.7% | % Inhibition 10 μM (TYK2; 10 μM): 4.6% | % Inhibition 10 μM (LYNa; 10 μM): −0.3% | % Inhibition 10 μM (NDR2; 10 μM): −3.2% | % Inhibition 10 μM (RET; 10 μM): 3.0% | % Inhibition 10 μM (LCK; 10 μM): 9.2% | % Inhibition 10 μM (FGR; 10 μM): 12.0% | % Inhibition 10 μM (MSSK1; 10 μM): 2.8% | % Inhibition 10 μM (HER2; 10 μM): 3.8% | % Inhibition 10 μM (PDGFRα(T674I); 10 μM): 3.1% | % Inhibition 10 μM (NuaK2; 10 μM): −2.8% | % Inhibition 10 μM (JAK1; 10 μM): 3.7% | % Inhibition 10 μM (PDHK4; 10 μM): 24.2% | % Inhibition 10 μM (IKKβ; 10 μM): 0.2% | % Inhibition 10 μM (JAK2; 10 μM): 3.0% | % Inhibition 10 μM (PRKX; 10 μM): −0.2% | % Inhibition 10 μM (TBK1; 10 μM): −0.5% | % Inhibition 10 μM (EPHA7; 10 μM): −3.0% | % Inhibition 10 μM (HCK; 10 μM): 6.6% | % Inhibition 10 μM (MRCKα; 10 μM): 4.3% | % Inhibition 10 μM (KIT(D816V); 10 μM): −1.7% | % Inhibition 10 μM (skMLCK; 10 μM): 9.4% | % Inhibition 10 μM (WNK2; 10 μM): 1.6% | % Inhibition 10 μM (PAK5; 10 μM): 6.5% | % Inhibition 10 μM (PIM1; 10 μM): 11.0% | % Inhibition 10 μM (CLK2; 10 μM): 6.1% | % Inhibition 10 μM (PDGFRα; 10 μM): 6.7% | % Inhibition 10 μM (CK2α2/β; 10 μM): −2.3%
